Literature values in US7326706B2, “Pyrazine modulators of cannabinoid receptors” (Bristol-Myers Squibb Company, priority 2003, dated 2008).

Experiments:
[1] = chronic administration for two weeks
[2] = 16 week trial period

## Cc1c(C(=O)NN2CCCCC2)nn(-c2ccc(Cl)cc2Cl)c1-c1ccc(I)cc1 [AM-251]
[1]
  body weight: substantial body weight reduction

## Cc1c(C(=O)NN2CCCCC2)nn(-c2ccc(Cl)cc2Cl)c1-c1ccc(Cl)cc1 [SR-141716]
[2]
  body weight in human subjects: dose-dependently reduced body weight
